Experimental data: patent US20240002326A1, “COMPOUNDS AND USE THEREOF IN METHODS OF TREATMENT” (The University of Queensland, priority 2016, published 2024)
“Also recorded” adds a separate entry of the source.

Columns and labels:
SOX18-RBPJ interaction = SOX18-RBPJ interaction (Homo sapiens (Human), UniProt P35713); test: ALPHAScreen SOX18-RBPJ protein-protein interaction; assay type: binding
From the text: Proteins were genetically encoded with enhanced GFP (GFP), mCherry and cMyc (myc) tags, and cloned into cell free expression Gateway destination vectors: N-terminal GFP tagged (pCellFree_G03), N-terminal Cherry-cMyc (pCellFree_G07) and C-terminal Cherry-cMyc tagged (pCellFree_G08) (Gagoski et al., 2015). Human RBPJ (BC020780) and MEF2C (BC026341) Open Reading Frames (ORFs) were sourced from the Human ORFeome collection, version 1.1 and 5.1, and the Human Orfeome collaboration OCAA collection (Open Biosystems), as previously described (Sierecki et al., 2013) and cloned at the ARVEC facility, UQ Diamantina Institute. The entry clones pDONOR223 or pENTR201 vectors were exchanged with the ccdB gene in the expression plasmid by LR recombination (Life Technologies, Australia). The full-length human SOX18 gene was synthesized and the transfer to vectors was realized using Gateway PCR cloning. Translation competent Leishmania tarentolae extract (LTE) was prepared as previously described (Kovtun et al., 2011, Mureev et al., 2009). Protein pairs were co-expressed by adding 30 nM of GFP template plasmid and 60 nM of Cherry template plasmid to LTE and incubating for 3 hours at 27° C.
ALPHAScreen was performed as previously described (Sierecki et al., 2014, Sierecki et al., 2013). […] Percentage of interaction was calculated as: (I_cpd/I_DMSO)×100 from 3 independent experiments.
(§1) ALPHAScreen was performed as previously described (Sierecki et al., 2014, Sierecki et al., 2013), using the cMyc detection kit and Proxiplate-384 Plus plates (PerkinElmer). The LTE lysate co-expressing the proteins of interest was diluted in buffer A (25 mM HEPES, 50 mM NaCl). For the assay, 12.5 μL (0.4 μg) of Anti-cMyc coated Acceptor Beads in buffer B (25 mM HEPES, 50 mM NaCl, 0.001% NP40, 0.001% casein) were aliquoted into each well. This was followed by the addition of 2 μL of diluted sample, at different concentration, and 2 μL of biotin labeled GFP-Nanotrap in buffer A. The plates were incubated for 45 min at room temperature, then adding 2 μL (0.4 μg) of streptavidin-coated Donor Beads diluted in buffer A, and incubation in the dark for 45 min at room temperature. The ALPHAScreen signal was measured on an Envision Plate Reader (PerkinElmer), using manufacturer's recommended settings (λexc=680/30 nm for 0.18 s, λem=570/100 nm after 37 ms). The resulting bell-shaped curve is an indication of a positive interaction, while a flat line reflects a lack of interaction between the proteins. The measurement of each protein pair was repeated in triplicate.
(§2) I is the highest signal level (top of the hook effect curve) and Ineg is the lowest (background) signal level. The signals were normalized to the Iref signal obtained for the strongest interaction. […] Percentage of interaction was calculated as: […]
The ALPHA-Screen Assay was performed as previously described (Sierecki et al. 2014), using the cMyc detection kit and Proxiplate-384 Plus plates (PerkinElmer). A serial dilution of each sample was measured. The LTE lysate co-expressing the proteins of interest was diluted in buffer A (25 mM HEPES, 50 mM NaCl). For the assay, 12.5 μL (0.4 μg) of Anti-cMyc coated Acceptor Beads in buffer B (25 mM HEPES, 50 mM NaCl, 0.001% NP40, casein) were aliquoted into each well. This was followed by the addition of 2 μL of diluted sample and 2 μL of biotin labeled GFP-Nanotrap in buffer A. The plate was incubated for 45 min at RT. Afterward, 2 μL (0.4 μg) of Streptavidin coated Donor Beads diluted in buffer A, were added, followed by incubation in the dark for 45 min at RT. The ALPHA-Screen signal was obtained on an Envision Multilabel Plate Reader (PerkinElmer), using the manufacturer's recommended settings (excitation: 680/30 nm for 0.18 s, emission: 570/100 nm after 37 ms). The resulting bell-shaped curve is an indication of a positive interaction, while a flat line reflects a lack of interaction between the proteins. […]

SOX18-SOX18 homodimer = SOX18-SOX18 homodimer (Homo sapiens (Human), UniProt P35713); test: ALPHAScreen SOX18-SOX18 homodimerization; assay type: binding; settings: 5 uM
Procedure: as §1, §2
The ALPHA-Screen Assay was performed as previously described (Sierecki et al. 2014), using the cMyc detection kit and Proxiplate-384 Plus plates (PerkinElmer). A serial dilution of each sample was measured. The LTE lysate co-expressing the proteins of interest was diluted in buffer A (25 mM HEPES, 50 mM NaCl). For the assay, 12.5 μL (0.4 μg) of Anti-cMyc coated Acceptor Beads in buffer B (25 mM HEPES, 50 mM NaCl, 0.001% NP40, casein) were aliquoted into each well. This was followed by the addition of 2 μL of diluted sample and 2 μL of biotin labeled GFP-Nanotrap in buffer A. The plate was incubated for 45 min at RT. Afterward, 2 μL (0.4 μg) of Streptavidin coated Donor Beads diluted in buffer A, were added, followed by incubation in the dark for 45 min at RT. The ALPHA-Screen signal was obtained on an Envision Multilabel Plate Reader (PerkinElmer), using the manufacturer's recommended settings (excitation: 680/30 nm for 0.18 s, emission: 570/100 nm after 37 ms). The resulting bell-shaped curve is an indication of a positive interaction, while a flat line reflects a lack of interaction between the proteins. The measurement of each protein pair was repeated a minimum of three times using separate plates. The Binding Index was calculated as: BI=[(I−I_neg)/(I_ref−I_neg)]×100
For PPI disruption assay, protein pairs expressed in LTE were incubated for 1 h with 100 μM Sm4 or DMSO alone (0.7% DMSO final). 100 μM Sm4 or DMSO was also added to buffer B. PPI disruption was calculated as: (1−I_Sm4/I_DMSO)×100.
For IC50 determination, the assay was identical but a dilution range of Sm4 was used (0.3 to 300 μM). Percentage of interaction was calculated as: I_Sm4/1 DMSO×100. Data from at least 3 independent experiments were fitted in GraphPad Prism (RRID: SCR_007370) version 6.0 using 3-parameter non-linear regression.

SOX18-SOX18 homodimer, sequence (P35713 whole entry): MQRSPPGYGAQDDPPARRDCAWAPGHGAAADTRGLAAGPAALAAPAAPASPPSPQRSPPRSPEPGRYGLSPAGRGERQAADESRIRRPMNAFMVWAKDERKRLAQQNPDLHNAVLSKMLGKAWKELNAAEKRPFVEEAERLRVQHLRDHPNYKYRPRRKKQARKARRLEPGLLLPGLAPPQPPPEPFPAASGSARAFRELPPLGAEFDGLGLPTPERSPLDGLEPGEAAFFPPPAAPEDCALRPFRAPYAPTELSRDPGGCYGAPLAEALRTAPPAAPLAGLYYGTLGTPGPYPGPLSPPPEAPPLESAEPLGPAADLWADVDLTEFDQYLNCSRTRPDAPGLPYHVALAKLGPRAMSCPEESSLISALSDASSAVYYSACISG
SOX18-RBPJ interaction, sequence (P35713 whole entry): as above

With `COc1cc(C)cc(/C=C/c2ccc3ccccc3c2)c1C(=O)O` [Sm34, (E)-2-methoxy-4-methyl-6-(2-(naphthalen-2-yl)vinyl)benzoic acid] the “SOX18-RBPJ protein-protein binding inhibition at 5 μM” value (SOX18-RBPJ interaction) was “highly active” and the “inhibitory activity in respect of SOX18-SOX18 homodimerization” value (“inhibitory activity” below) (SOX18-SOX18 homodimer) was “some inhibitory activity”.

`O=C(O)c1ccccc1Nc1cccc(C(F)(F)F)c1` [Flufenamic acid, reference compound] showed an IC50 (SOX18-RBPJ interaction; ALPHAScreen, read-out: SOX18-RBPJ interaction disruption IC50) of ~444 µM.

For `Oc1cc(CCc2ccccc2)cc(O)c1O` [Sm40, 5-phenethylbenzene-1,2,3-triol], the “SOX18-RBPJ protein-protein binding inhibition at 5 μM” value (SOX18-RBPJ interaction) was “highly active” and the “inhibitory activity” value (SOX18-SOX18 homodimer) was “some inhibitory activity”.

With `CCN(CC)C(=O)c1c(O)cc(O)cc1CCc1ccc2ccccc2c1` [Sm26, N,N,diethyl-2,4-hydroxy-6-(2-(naphthalen-2-yl)ethyl)benzamide] the “SOX18-RBPJ protein-protein binding inhibition at 5 μM” value (SOX18-RBPJ interaction) was “highly active; also recorded: moderately active” and the “inhibitory activity” value (SOX18-SOX18 homodimer) was “some inhibitory activity”.
